Biological target: T1, PRS (prolyl-tRNA synthetase) (Homo sapiens, UniProt P07814)
T1 construct: the portion corresponding to PRS in cDNA of EPRS was subcloned; made in house
T1 sequence (P07814 1007-1512 limits assumed): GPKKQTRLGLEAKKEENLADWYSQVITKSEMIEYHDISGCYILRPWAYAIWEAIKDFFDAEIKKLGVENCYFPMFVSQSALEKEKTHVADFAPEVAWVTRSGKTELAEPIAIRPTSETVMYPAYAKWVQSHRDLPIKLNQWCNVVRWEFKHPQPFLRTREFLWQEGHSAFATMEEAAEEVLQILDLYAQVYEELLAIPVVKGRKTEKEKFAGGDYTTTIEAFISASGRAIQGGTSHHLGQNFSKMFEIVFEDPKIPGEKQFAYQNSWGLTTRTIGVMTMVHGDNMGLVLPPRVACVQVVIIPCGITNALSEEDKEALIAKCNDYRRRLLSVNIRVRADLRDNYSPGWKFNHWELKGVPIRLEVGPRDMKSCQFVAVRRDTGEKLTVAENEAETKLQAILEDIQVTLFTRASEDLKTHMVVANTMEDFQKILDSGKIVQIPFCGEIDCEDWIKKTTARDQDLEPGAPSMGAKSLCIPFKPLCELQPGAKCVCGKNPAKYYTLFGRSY
Assay: In vitro PRS enzyme activity inhibition experiment ([3H]proline, liquid scintillation)
Assay type: biochemical
Conditions: purified PRS protein subcloned from EPRS cDNA; 37° C., 5 to 10 minutes; read-out: PRS IC50
Experimental: In order to confirm the biological activities of the compounds prepared in Examples, % inhibition or IC50 values of PRS enzyme ([…]) activities were calculated.
Specifically, the portion corresponding to PRS in cDNA of EPRS was subcloned, and the obtained high-purity PRS protein was purified and used in the experiment. The compounds (1 μM) prepared in Examples were added into the reaction buffer (20 mM KPO4 (pH 7.4), 6 mM MgAc, 5 mM ATP, […] tRNA, 0.5 mM DTT, 20 mCi[^3H]proline (1 mCi/mL)) and allowed to react at 37° C. for 5 to 10 minutes. The reaction was terminated with 3M paper that was previously dried by addition of 5% TCA. The radioactivity was measured using a liquid scintillation counter.
IC50 values of the respective compounds were calculated and analyzed using Microsoft Excel or Sigma Plot 8.0. In Table 1, the results are divided into A, B and C according to the range of IC50. The case where the derived IC50 is 100 nM or less is represented by “A”, the case where the IC50 is 100 to 500 nM is represented by “B”, and the case where the IC50 is 500 nM or higher is represented by “C”.

Structure (SMILES) | IC50
O=C(C[C@H]1NCCC[C@@H]1O)Cn1ncc2cc(Cl)ccc21 [Example 96, 1-(5-chloro-1H-indazol-1-yl)-3-((2R,3S)-3-hydroxypiperidin-2-yl)propan-2-one] | > 500 nM
O=C(C[C@H]1NCCC[C@@H]1O)Cn1c(CO)nc2ncccc21 [Example 68, 1-(2-(hydroxymethyl)-1H-imidazo[4,5-b]pyridin-1-yl)-3-((2R,3S)-3-hydroxypiperidin-2-yl)propan-2-one] | 100 to 500 nM
O=C(C[C@H]1NCCC[C@@H]1O)Cn1ccc2cc(Cl)cnc21 [Example 91, 1-(5-chloro-1H-pyrrolo[2,3-b]pyridin-1-yl)-3-((2R,3S)-3-hydroxypiperidin-2-yl)propan-2-one] | 100 to 500 nM
OC(C[C@H]1NCCC[C@@H]1O)Cn1cnc2c(C(F)(F)F)c(Br)ccc21 (stereo partly drawn) [Example 72, (2R,3S)-2-(3-(5-bromo-4-(trifluoromethyl)-1H-benzo[d]imidazol-1-yl)-2-hydroxypropyl)piperidin-3-ol] | > 500 nM
C[C@H](O)c1nc2ccccc2n1CC(=O)C[C@H]1NCCC[C@@H]1O [Example 55, 1-(2-((S)-1-hydroxyethyl)-1H-benzo[d]imidazol-1-yl)-3-((2R,3S)-3-hydroxypiperidin-2-yl)propan-2-one] | > 500 nM
O=C(C[C@H]1NCCC[C@@H]1O)Cn1cnc2c(Cl)cc(Cl)nc21 [Example 41, 1-(5,7-dichloro-3H-imidazo[4,5-b]pyridin-3-yl)-3-((2R,3S)-3-hydroxypiperidin-2-yl)propan-2-one] | < 100 nM
O=C(C[C@H]1NCCC[C@@H]1O)Cn1cnc2ncc(Br)cc21 [Example 31, 1-(6-bromo-1H-imidazo[4,5-b]pyridin-1-yl)-3-((2R,3S)-3-hydroxypiperidin-2-yl)propan-2-one] | > 500 nM

Continued, values first:

IC50 | Structure (SMILES)
> 500 nM | CNC(C[C@H]1NCCC[C@@H]1O)Cn1cnc2cc(Cl)c(Cl)cc21 (stereo partly drawn) [Example 86, (2R,3S)-2-(3-(5,6-dichloro-1H-benzo[d]imidazol-1-yl)-2-(methylamino)propyl)piperidin-3-ol]
> 500 nM | Cc1c(Cl)cnc2c1ncn2CC(O)C[C@H]1NCCC[C@@H]1O (stereo partly drawn) [Example 77, (2R,3S)-2-(3-(6-chloro-7-methyl-3H-imidazo[4,5-b]pyridin-3-yl)-2-hydroxypropyl)piperidin-3-ol]
100 to 500 nM | O=C(C[C@H]1NCCC[C@@H]1O)Cn1cnc2cccnc21 [Example 34, 1-((2R,3S)-3-hydroxypiperidin-2-yl)-3-(3H-imidazo[4,5-b]pyridin-3-yl)propan-2-one]
100 to 500 nM | Cc1ccc2c(cnn2CC(=O)C[C@H]2NCCC[C@@H]2O)c1Br [Example 97, 1-(4-bromo-5-methyl-1H-indazol-1-yl)-3-((2R,3S)-3-hydroxypiperidin-2-yl)propan-2-one]
100 to 500 nM | OC(C[C@H]1NCCC[C@@H]1O)Cn1cnc2c(Cl)c(Br)cnc21 (stereo partly drawn) [Example 79, (2R,3S)-2-(3-(6-bromo-7-chloro-3H-imidazo[4,5-b]pyridin-3-yl)-2-hydroxypropyl)piperidin-3-ol]
> 500 nM | OC(C[C@H]1NCCC[C@@H]1O)Cn1cnc2c(Cl)c(Cl)ccc21 (stereo partly drawn) [Example 75, (2R,3S)-2-(3-(4,5-dichloro-1H-benzo[d]imidazol-1-yl)-2-hydroxypropyl)piperidin-3-ol]
> 500 nM | O/N=C(/C[C@H]1NCCC[C@@H]1O)Cn1cnc2ncc(Br)cc21 [Example 66, 1-(6-bromo-1H-imidazo[4,5-b]pyridin-1-yl)-3-((2R,3S)-3-hydroxypiperidin-2-yl)propan-2-one oxime]
> 500 nM | Cc1c(Cl)ccc2c1ncn2CC(O)C[C@H]1NCCC[C@@H]1O (stereo partly drawn) [Example 76, (2R,3S)-2-(3-(5-chloro-4-methyl-1H-benzo[d]imidazol-1-yl)-2-hydroxypropyl)piperidin-3-ol]
> 500 nM | O/N=C(/C[C@H]1NCCC[C@@H]1O)Cn1cnc2cc(Cl)c(Cl)cc21 [Example 64, 1-(5,6-dichloro-1H-benzo[d]imidazol-1-yl)-3-((2R,3S)-3-hydroxypiperidin-2-yl)propan-2-one oxime]

From patent US10081634B2, “Heterocyclic compound” (Daewoong Pharmaceutical Co., Ltd., priority 2014, dated 2018)
